What all share (format): cell-based
The test system of test [1] is MDA-MB-231 cells. As to the kind of experiment: RNAseq analysis of global gene expression. An excerpt:
mRNA was extracted from DMSO- or volasertib-treated […]. cDNA libraries were made for sequencing a measure of transcript copy numbers that correspond to the abundance of each gene (FIG. 6A). […] Among those is 170 ARE-coding genes as derived by crossing with AU-rich element database. (FIG. 6B).

For a further test, the system named is PD-1L. Kind of test: PD-1L expression. As to conditions: FIG. 18. On the procedure:
FIG. 18: Volasertib reduces PD-1L expression.
(§1) These include IL-8, solute carrier family 2 member 1 (SLC2A1), uPA, uPAR, CXCR4, MMP13, PDL1, and HuR. The MDA-MB-231 cells were treated with 330 nM volasertib or DMSO for 24 hr, then quantitative RT-qPCR was performed in using FAM-labelled TaqMan probe of the above genes and normalized to GADPH (FIG. 11).

Test [2] concerns TNF-α-ARE luciferase reporter in MDA-MB-231 cells. Kind of test: Post-transcriptional ARE luciferase reporter assay (kinase inhibitor library screen). As to conditions: 0.5, 2 and 5 μM, ARE and non-ARE reporters. Background: Reporter assays use an easily measured gene product as a stand-in for the process of interest.
Test [3] relates to MDA-MB-231 cells. As to the kind of experiment: Proliferation assay (RTCA). As to conditions: MDA-MB-231, 300 nM, vs DMSO. The protocol: MDA-MB-231 cells were seeded in 6-well cell culture plates and incubated overnight. The cells were treated with the selected protein kinase inhibitors and incubated overnight. Then they were reseeded onto the invasion chamber in serum-free media at a density of 2×10^4 cells per well using 16-well CIM-Plate in Real-Time Cell Analysis (RTCA) Dual Plate (DP) Analyzer (ACEA Bioscinece, California, USA) that was loaded inside the incubator. The lower chambers to which cells will migrate were prepared to contain chemoattractant consisted of 10% FBS. For invasion assays, Matrigel (BioCoat, BD Biosciences, MA) which resembles the complex extracellular environment found in many tissues was prepared and used to coat the upper chamber of CIM plates. Invasion and migration were monitored continuously over 72-hour period using RTCA Software (ACEA Bioscinece, California, USA). The RTCA Instrument automatically monitors the cells every 15 minutes for 100 repetitions. For proliferation assays, the same principle was applied using a single chamber containing complete DMEM media (FIG. 10).
Based on the dose-response curve, 330 nM was selected to be used as a standard dose for the experiments. In the invasion assay, MDA-MB-231 cells were treated with volasertib or DMSO for 24 hr, then invasion was monitored for 30 hr.

Test [4] has as its system HuR mRNA in MDA-MB-231 cells. As to the kind of experiment: qPCR for HuR mRNA expression. The settings on record: MDA-MB-231, 24 h, vs DMSO. On the procedure: (§2) Cells were cultured in six-well plates and either treated with DMSO or drugs for 24 h. Total RNA was then extracted using Trizol reagent (TRI Reagent, Sigma-Aldrich, St Louis, Mo.). The cells were lysed directly on the culture dish by adding 1 ml of the TRI Reagent per 10 cm^2 surface area. Reverse transcription for preparation of cDNA was performed using 3 μg of total RNA, 150 ng random primers, 0.1 M dithiothreitol (DTT), 10 mM deoxynucleotide triphosphate (dNTP) and 200 U of SuperScript II (Invitrogen, Foster City, Calif.). The quantitative RT-QPCR was performed in multiplex in the Chroma 4 DNA Engine cycler (BioRad, Hercules, Calif., USA) using FAM-labelled TaqMan probes (Applied Biosystems, Foster City, Calif., USA) for TTP (ZFP36), HuR (ELAVL1), uPA (PLAU)-CXCR4, MMP-1, MMP-13, IL-8, PLK-1 while a VIC-labelled glyceraldehyde-3-phosphate dehydrogenase (GAPDH) probe was used as the endogenous control. Samples were amplified in triplicate and quantification of relative expression was performed using the estimation of quantitation cycle (Cq) method.
To study the influence of PLK-1 inhibition on ARE-containing mRNA stability, the effect of volasertib treatment on the half-life of uPA was analyzed. Half-life of uPA mRNA was reduced from >6 hr to 0.5 hr in response to volasertib treatment compared to the DMSO control (FIG. 12C). […]
In general terms: Real-time PCR tracks product formation cycle by cycle.

For test [5], the system named is MDA-MB-231, MCF7, and SKBR3 cell lines. Kind of test: mRNA expression in breast cancer cell lines. On the procedure: as §2
PLK1 kinase, as an example of kinases involved in cancer, is over-expressed in breast cancer cell lines, including MCF7, MDA-MB-231 and SKBR3 when compared to the normal-like MCF10A (FIG. 5A). Many kinases are either over-expressed or constitutively active or hyperactive in cancer states when compared to normal cells. As example of inhibitors that are found in the precision cancer therapy screen, Volasertib and Regorafenib (VEGFR kinase inhibitor) led to reduction in the level of ARE-containing mRNA, uPA in most of the cancer cell lines. (FIG. 5B).
The present inventors further disclose that the effect of PLK-1 inhibition is consistent among different types of breast cancer including triple-negative, […], and ER-PR negative breast cancers, as shown through the actions induced by PLK-1 inhibitor volasertib on MDA-MB-231, MCF7, and SKBR3 cell lines, namely increasing the expression of TTP, decreasing the HuR level, and downregulating the TTP target uPA. […] Accordingly, the present inventor discloses that any protein kinase inhibitor which post-transcriptionally regulates expression of cancer-related genes is suitable for precision cancer therapy. Further disclosed is a method of treatment of cancer comprising administering said protein kinase inhibitor, to a patient in need thereof.

Test [6] relates to ARE-containing mRNAs (uPA, IL-8, SLC2A1, uPAR, CXCR4, MMP13, PDL1, HuR) in MDA-MB-231 cells. Kind of test: RT-qPCR of ARE-containing cancer gene mRNAs. The settings on record: MDA-MB-231, 330 nM, 24 hr, vs DMSO. On the procedure: Examples of the effect of several protein kinase inhibitors that were the outcome of the screen assay on one cancer gene, uPA, and a pro-inflammatory cytokine, IL-8 is given in FIG. 3.
as §1
as §2, with “Reverse transcription for preparation of cDNA was performed using 3 μg of total RNA, 150 ng random primers, 0.1 M dithiothreitol (DTT), 10 mM deoxynucleotide triphosphate (dNTP) and 200 U of SuperScript II (Invitrogen, Foster City, Calif.).” left out

Test [7] has as its system uPA mRNA in MDA-MB-231 cells. Kind of test: mRNA half-life (Actinomycin D, one-phase exponential decay). The settings on record: MDA-MB-231, Actinomycin D 5 μg/ml; DMSO control >6 hr. On the procedure: For half-life experiments, 5 μg/ml of Actinomycin D (ActD; Sigma-Aldrich, St Louis, Mo.) was added to the cells for 1, 2, 4 and 6 h prior to extraction of total RNA using Trizol. The reverse transcription reaction and quantitative PCR were performed as described above. The half-life of mRNAs was estimated using the one-phase exponential decay method using GraphPad Prism software (GraphPad Software, San Diego, Calif.).
To study the influence of PLK-1 inhibition on ARE-containing mRNA stability, the effect of volasertib treatment on the half-life of uPA was analyzed. Half-life of uPA mRNA was reduced from >6 hr to 0.5 hr in response to volasertib treatment compared to the DMSO control (FIG. 12C). […] Compatible with the findings of the inventors, the higher the level of PLK-1, the lower the TTP expression.

Where [8] appears, read: MDA-MB-231, MCF7, and SKBR3 cell lines.

Turning to `CC[C@@H]1C(=O)N(C)c2cnc(Nc3ccc(C(=O)N[C@H]4CC[C@H](N5CCN(CC6CC6)CC5)CC4)cc3OC)nc2N1C(C)C` [volasertib], the “number of ARE-coding genes among the down-regulated genes” value with MDA-MB-231 cells [1] (crossed with AU-rich element database) was determined as 170 genes. Moreover, in the test on MDA-MB-231 cells [1] (p<0.001, vs DMSO), the “number of genes down-regulated by at least 1.7-fold” value is recorded as 540 genes. For the same molecule, in the test on PD-1L, the PD-1L expression result was “reduces”. The “ARE-dependent mRNA regulation confirmed in later stages of screening compared to a non-ARE reporter” value in test [2] is “confirmed to be involved in ARE-dependent mRNA regulation”. Besides, the proliferation entry in the test on MDA-MB-231 cells [3] was “significantly reduced”. Also, in test [4], the “reduction of HuR mRNA expression” value turned out to be 60%. Further, the “level of ARE-containing mRNA uPA in cancer cell lines” value in test [5] (MCF7, MDA-MB-231 and SKBR3, most of the cancer cell lines) was “reduction”. Besides, in test [5] (setting [8]), the HuR level entry was “decreasing”, the “TTP target uPA” value is “downregulating” and the “expression of TTP” value is “increasing”. The “expression of all ARE-containing cancer genes (IL-8, SLC2A1, uPA, uPAR, CXCR4, MMP13, PDL1, HuR)” value in test [6] is “significantly reduced”. In addition, the “half-life of uPA mRNA” value in test [7] is 30 min.

The values are drawn from patent publication US20210255168A1, “A METHOD OF PRECISION CANCER THERAPY” (KING FAISAL SPECIALIST HOSPITAL & RESEARCH CENTRE, priority 2018, published 2021).
